Data taken from patent US4436925A, “Addition compound of dipeptide derivative and amino acid derivative” (Toyo Soda Manufacturing Co., Ltd., priority 1977, dated 1984).
Where a SMILES comes first, the peptide text is derived from it.

Experiments:
[1] = Solubility in water or diluted hydrochloric acid
[2] = times of that of sugar; cited from earlier work

| Compound | solubility ([1]; in diluted hydrochloric acid (10^-2 M) at 25° C.) | solubility ([1]; in water at 25° C.) [g/100 g water] | sweetness relative to sugar [2] |
| --- | --- | --- | --- |
| COC(=O)[C@H](Cc1ccccc1)NC(=O)[C@H](CC(=O)O)NC(=O)OCc1ccccc1 | 0.017 g/100 g diluted hydrochloric acid (10^-2 M) | 0.028 | – |
| COC(=O)[C@H](Cc1ccccc1)NC(=O)[C@@H](N)CC(=O)O [α-L-Aspartyl-L-phenylalanine methyl ester] (H-Asp-Phe-OMe) | – | – | about 200 times |
